The values below come from article PMC6736837, “^18F-labelled triazolyl-linked argininamides targeting the neuropeptide Y Y1R for PET imaging of mammary carcinoma” (Scientific Reports, 2019).

Data set [1] can be described thus: Radiotracer stability in human serum by radio-HPLC. The format is in vitro ADME. To be noted: 37 °C. The method, then: The stability of ^18F-labelled compounds was determined in human serum. An aliquot of the radiotracer (5–10 MBq) was added to 200 µL human serum and incubated at 37 °C. Aliquots of 15 µL were taken after 5, 10, 15, 30, 45, 60, 120 and 180 min and quenched in 100 µL of 10% aqueous TFA. The samples were centrifuged (20000 × g, 2 min), and the supernatants were analysed by radio-HPLC (Chromolith RP-18e, 100 × 4.6 mm, 4 mL/min, 0–1 min 25% CH3CN (0.1% TFA) in water (0.1% TFA), 1–6 min 25–60%, 6–7 min 60–100%, 7–8 min 100%).

Data set [2] is described as follows: Biodistribution in healthy mice. The format is in vivo, mouse. To be noted: for kidney uptake: at 30 and 90 min p.i. The method, then: Biodistribution studies were conducted using female NMRI outbred mice (HsdWin:NMRI) purchased from Envigo (Horst, The Netherlands). Mice were kept in groups of four to five animals in individually ventilated cages in a twelve hours dark/light cycle with unlimited access to water and standard chow. At the age of eight to nine weeks six animals per radiotracer were injected with 2–4 MBq of the respective radiotracer under isoflurane anesthesia. Mice were sacrificed by cervical dislocation 30 or 90 min p.i. of the radiotracer. Blood as well as the organs/tissues lung, liver, kidneys, heart, spleen, brain, muscle, intestines, gall bladder and bones were harvested and analysed in the γ-counter. Samples were weighed and radioactivity in different tissues was calculated as percentage of the total injected dose per gram tissue (%ID/g).

The nature of data set [3]: Radioactive metabolites of Y1R radioligands in mouse blood. The format is in vivo. The settings on record: for stability in the blood in vivo (in words): mouse blood samples taken early after radiotracer injection; for intact radioligand in blood samples: 5 min p.i. The protocol:
Nude mice were anesthetised with isoflurane and injected with the respective radiotracer (3–25 MBq) into the tail vein. After 5 min, animals were sacrificed by cervical dislocation and approx. 100 µL blood were collected from the abdomen and transferred into Li-heparinised Microvettes® (100 LH, Sarstedt). The same volume of aqueous urea (0.8 g/mL) was added and the Microvette® was centrifuged (2000 × g, 5 min). The supernatant was transferred to a 1.5 mL reaction vial, mixed with the same volume of 10% aqueous TFA and centrifuged (20000 × g, 5 min). This step was repeated once. A sample of the resulting supernatant (100 µL) was analysed by radio-HPLC using two methods (Chromolith RP-18e, 100 × 4.6 mm, 4 mL/min, 0–1 min 25% CH3CN (0.1%TFA) in water (0.1%TFA), 1–6 min 25–60%, 6–7 min 60–100%, 7–8 min 100%; Kromasil 100 C8 5 µm, 250 × 4.6 mm, 1.5 mL/min, 1–25 min 20–53.3% CH3CN (0.1% TFA) in water (0.1% TFA), 25–27 min 53.3–80%, 27–28 min 80–100%, 28–32 min 100%).

Molecules are shown by their SMILES. Some results are limits rather than exact numbers.

As for `N/C(=N/C(=O)NCc1cn([C@@H]2OC(C[18F])[C@@H](O)C(O)C2O)nn1)NCCC[C@@H](NC(=O)C(c1ccccc1)c1ccccc1)C(=O)NCc1ccc(O)cc1` (stereo partly drawn) [[^18F]11, (2R)‐5‐{[(1Z)‐Amino({[({1‐[(2R,5S)‐6‐([^18F]fluoromethyl)‐3,4,5‐trihydroxyoxan‐2‐yl]‐1H‐1,2,3‐triazol‐4‐yl}methyl)carbamoyl]imino})methyl]amino}‐2‐(2,2‐diphenylacetamido)‐N‐[(4‐hydroxyphenyl)-methyl]pentanamide], the “Stability over 3 h in human serum” value in data set [1] was more than 99%. Besides, the “uptake in the gall bladder” value in data set [2] (after 90 min) is reported as “up to 600 %ID/g”. Moreover, the kidney uptake result in data set [2] is on record as “less than 5 %ID/g”. In data set [3], the “stability in the blood in vivo (in words)” value was “higher stability in the blood in vivo”. For the same compound, the “intact radioligand in blood samples” value in data set [3] (mouse) is “about 50%”.

`N/C(=N/C(=O)NCc1cn(CCOCCOCCOCC[18F])nn1)NCCC[C@@H](NC(=O)C(c1ccccc1)c1ccccc1)C(=O)NCc1ccc(O)cc1` [[^18F]13, (2R)‐5‐{[(1Z)‐Amino[({[1‐(2‐{2‐[2‐(2‐[^18F]fluoroethoxy)ethoxy]ethoxy}ethyl)‐1H‐1,2,3‐triazol‐4‐yl]methyl}carbamoyl)imino]methyl]amino}‐2‐(2,2‐diphenylacetamido)‐N‐[(4‐hydroxyphenyl)-methyl]pentanamide]: the “Stability over 3 h in human serum” value in data set [1] is more than 99%. For the same compound, in data set [2], the kidney uptake result is “less than 5 %ID/g”. Further, in data set [3] (mouse), the “radiometabolites in the blood” value is listed as more than 90% and the “intact radioligand in blood samples” value is “less than 5%”. The “stability in the blood in vivo (in words)” value in data set [3] is listed as “underwent rapid degradation in the blood”.
